The record followed here is patent US12195437B2, “Lipophenolic flavonoid derivatives useful to reduce carbonyl and oxidative stresses (COS)” (Centre National de la Recherche Scientifique (CNRS), priority 2018, dated 2025).

What all share (format): cell-based
Data set [1] is described as follows: Cytotoxicity of lipophenols on ARPE-19 cells (MTT). The settings on record: human, ARPE-19 cells (retinal pigment epithelium), tested 0-160 μM, read-out: CC50 (cytotoxic concentration 50). Here is the method:
(§1) Cell viability was determined by MTT colorimetric assay. Cells were incubated for 2 h with MTT reagent (0.5 mg/mL). During this incubation time, dehydrogenases of living cells reduced MTT to insoluble purple formazan, which was then dissolved in DMSO. The absorbance at 570 nm and 655 nm of individual wells was measured using a microplate reader (BioRad 550). The percentage of viable cells was calculated as [(OD570 sample−OD655 sample)/(OD570 control−OD655 control)]×100%.
(§2) ARPE-19 cells were plated into 96-well plates (4×10^4 cells/well) and cultured for 24 h to reach confluence before lipophenol treatment. […] Control cells were incubated with DMSO (0.2%). The viability of the cells was determined using a MTT colorimetric assay. All samples are expressed as percentage of viability compared to non-treated control cells (normalized at 100% survival).
(§3) Results on the measurement of lipophenol toxicity will be discussed in % cell survival at a given lipophenol concentration compared to untreated cells. […] Any concentration of lipophenol resulting in cell survival of less than 5% (zero survival) will be considered a highly toxic concentration.

For data set [2], the system named is ARPE-19 cells. Nature of the data set: Protection of lipophenols against all-trans-retinal toxicity (anti-carbonyl stress activity, MTT). To be noted: trans-retinal 15 μM; for cell survival gain (anti-carbonyl stress activity): compared to stressed untreated cells. Here is the method:
(§4) ARPE-19 cells (cells from the retinal pigment epithelium) were obtained from ATCC, and were grown following the instructions in Dulbecco's Modified Eagle's Medium (DMEM)/Ham F12 (GIBCO) containing 10% v/v fetal bovine serum (FBS) and 1% v/v penicillin/streptomycin under a humidified air (95%)/CO2 (5%) atmosphere at 37° C. For experimental cell seeding and sub-culturing, cells were dissociated with 0.25% trypsin-EDTA, re-suspended in the culture medium and then plated at 1-3×10^5 cells/mL.
as §1
ARPE-19 cells were plated into 96-well plates (4×10^4 cells/well) and cultured for 24 h to reach confluence before lipophenol treatment. The cell cultures were treated with serum free medium containing lipophenols at different concentrations (0-80 μM) for 1 h. Then all-trans-retinal was added to a final concentration of 15 μM for 4 h, before rinsing with medium. Control cells were incubated with DMSO (0.2%)±all-trans-retinal. The cell viability was determined 16-20 h later using a MTT colorimetric assay. All samples are expressed as percentage of viability compared to non-treated and exposed to all-trans-retinal control cells. Non-treated and non-exposed to all-trans-retinal control cells are normalized at 100% survival.
The results on the measurement of anti-carbonyl stress activity will be discussed in % cell survival gain compared to cells stressed by trans-retinal (at 15 μM) and not treated with lipophenols. Any survival gain greater than +5% will be considered as a proven anti-carbonyl stress activity.

Data set [3] deals with ARPE-19 cells. Nature of the data set: Protection of lipophenols against ROS production (DCFDA probe, H2O2). The settings on record: 80 μM lipophenol, H2O2 600 μM. Here is the method:
as §4
Reactive oxygen species (ROS) were measured in ARPE-19 cells with the probe DCFDA. The cell permeant reagent DCFDA is deacetylated by cellular esterases to […], which can be oxidized by ROS into the fluorophore 2′,7′-dichlorofluorescein (DCF). ARPE-19 cells were plated into black, opaque bottom 96-well plates (4×10^4 cells/well) and cultured for 24 h to reach confluence before drug treatment. The cell cultures were incubated with 2 μM of DCFDA for 45 min in DMEM/F12 medium without phenol red+1% FBS. The cells were rinsed and incubated with medium containing lipophenols at different concentrations (0-80 μM) for 1 h. Then H2O2 was added to a final concentration of 600 μM for 4 h, followed by the measurement of DCF production by fluorescence spectroscopy with excitation wavelength at 485 nm and emission wavelength at 535 nm. Control cells were incubated with DMSO (0.2%)±DCFDA±H2O2. All samples are expressed as percentage of ROS production compared to non-oxidized control cells (normalized at 100% of ROS production).
The lowest percentages of increase will therefore be representative of the most protective derivatives.

Data set [4] deals with ARPE-19 cells. The data set can be described thus: Cytotoxicity of lipophenols on ARPE-19 cells (MTT). The settings on record: 24 h. Here is the method: as §1, §2, §3
Data set [5] has as its system ARPE-19 cells. The data set can be described thus: Protection of lipophenols against photoactivated A2E toxicity (MTT). To be noted: from 40 μM lipophenol (plateau), A2E 20 μM, blue light. How it is done: as §4, §1
ARPE-19 cells were plated into 96-well plates (4×10^4 cells/well) and cultured for 24 h to reach confluence before lipophenol treatment. The cell cultures were treated with serum free DMEM/F12 medium without phenol red containing lipophenols at different concentrations (0-80 μM) for 1 h. Then A2E was added to a final concentration of 20 μM for 6 h, before rinsing with medium. Control cells were incubated with DMSO (0.2%)+A2E. Cells were exposed to intense blue light (4600 LUX) for 30 min to induce phototoxicity of A2E and incubated at 37° C. The cell viability was determined 16-20 h later using a MTT colorimetric assay. All samples are expressed as percentage of viability compared to non-treated and exposed to A2E control cells. Non-treated and non-exposed to A2E control cells are normalized at 100% survival.
Photoactivation of A2E leads to its oxidation and can generate cytotoxic derivatives, in particular carbonyl derivatives responsible for carbonyl stress. Results on lipophenol protection against photoactivated A2E toxicity will be discussed in % cell survival gain compared to cells stressed by A2E and not treated by lipophenols. This additional evaluation was not performed for all synthesized lipophenolic derivatives but only a selection of them to discuss the results obtained.

Entries after “also recorded” stand apart in the source; their conditions may differ. Bounds are passed on as bounds.

On to `CCCCC/C=C\C/C=C\CCCCCCCC(=O)O[C@H]1Cc2c(O)cc(O)cc2O[C@@H]1c1ccc(O)c(O)c1` [C-3LA, (9Z,12Z)-(2R,3S)-2-(3,4-dihydroxyphenyl)-5,7-dihydroxy-chroman-3-yl octadeca-9,12-dienoate], for which, in data set [1], the CC50 at 24 h is under 160 µM. For the same compound, the “cell survival gain (anti-carbonyl stress activity)” value in the data set with ARPE-19 cells [2] (80 μM lipophenol) is “+11%”. The “gain of % of ROS production compared to non-stressed cells” value in the data set with ARPE-19 cells [3] is on record as “+24%”.

`CC/C=C\C/C=C\C/C=C\C/C=C\C/C=C\C/C=C\CCC(=O)Oc1c(-c2ccc(O)c(O)c2)oc2cc(O)cc(OC(C)C)c2c1=O` [Q-3DHA-5OiP, (4Z,7Z,10Z,13Z,16Z,19Z)-7-hydroxy-2-(3,4-dihydroxyphenyl)-5-isopropoxy-4-oxo-4H-chromen-3-yl docosa-4,7,10,13,16,19-hexaenoate]: the CC50 at 24 h in data set [1] is over 40 µM. For the same compound, in the data set on ARPE-19 cells [4], the “concentration from which cytotoxicity is induced” value was 60 µM. Besides, the “cell survival gain (anti-carbonyl stress activity)” value in the data set on ARPE-19 cells [2] (40 μM lipophenol) is reported as “+27%”.

As for `O=c1c(O)c(-c2ccc(O)c(O)c2)oc2cc(O)cc(O)c12` [quercetin, reference compound], the CC50 at 24 h in data set [1] is about 120 µM. The “anti-carbonyl stress activity (in words)” value with ARPE-19 cells [2] (up to 80 μM lipophenol) is recorded as “did not show anti-carbonyl stress potency; also recorded: no cellular protection”. For the same compound, the “cell survival gain against photoactivated A2E” value with ARPE-19 cells [5] is reported as “+36%”.
